Assays:
Adenosine receptor A1 = target: T1, Adenosine receptor A1 (Homo sapiens, UniProt P30542); experiment: Displacement of [3H]CCPA from human adenosine A1 receptor expressed in CHO cells after 3 hrs by scintillation counting method; assay type: cell-based
T1 sequence (P30542 whole entry): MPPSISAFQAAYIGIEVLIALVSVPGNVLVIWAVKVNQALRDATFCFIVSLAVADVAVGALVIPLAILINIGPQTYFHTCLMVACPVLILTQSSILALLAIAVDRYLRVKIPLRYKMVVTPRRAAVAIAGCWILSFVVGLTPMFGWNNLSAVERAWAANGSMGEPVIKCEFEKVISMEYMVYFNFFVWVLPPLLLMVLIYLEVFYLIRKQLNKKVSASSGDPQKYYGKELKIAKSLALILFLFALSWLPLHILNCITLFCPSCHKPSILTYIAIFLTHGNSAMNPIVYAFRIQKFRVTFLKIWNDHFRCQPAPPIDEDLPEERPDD

Adenosine receptor A2a [1] = target: T2, Adenosine receptor A2a (Homo sapiens, UniProt P29274); experiment: Displacement of [3H]NECA from human adenosine A2A receptor expressed in CHO cells after 3 hrs by scintillation counting method; assay type: cell-based
Adenosine receptor A3 = target: T3, Adenosine receptor A3 (Homo sapiens, UniProt P0DMS8); experiment: Displacement of [3H]HEMADO from human adenosine A3 receptor expressed in CHO cells after 3 hrs by scintillation counting method; assay type: cell-based
T3 sequence (P0DMS8 whole entry): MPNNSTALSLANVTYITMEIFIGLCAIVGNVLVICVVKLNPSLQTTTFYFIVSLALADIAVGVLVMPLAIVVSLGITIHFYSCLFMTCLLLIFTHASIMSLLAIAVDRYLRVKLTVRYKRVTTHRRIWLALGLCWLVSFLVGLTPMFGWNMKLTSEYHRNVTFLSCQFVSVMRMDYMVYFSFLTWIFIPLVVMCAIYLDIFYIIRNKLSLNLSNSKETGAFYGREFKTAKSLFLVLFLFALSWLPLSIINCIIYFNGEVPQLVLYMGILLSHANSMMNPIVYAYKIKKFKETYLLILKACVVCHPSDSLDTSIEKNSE

Homo sapiens [2] = species on record: Homo sapiens; experiment: Selectivity ratio of Ki for displacement of [3H]CCPA from human adenosine A1 receptor expressed in CHO cells to Ki for displacement of [3H]NECA from human adenosine A2A receptor expressed in CHO cells; assay type: cell-based
Homo sapiens [3] = species on record: Homo sapiens; experiment: Selectivity ratio of Ki for displacement of [3H]HEMADO from human adenosine A3 receptor expressed in CHO cells to Ki for displacement of [3H]NECA from human adenosine A2A receptor expressed in CHO cells; assay type: cell-based
Adenosine receptor A2b = target: T4, Adenosine receptor A2b (Homo sapiens, UniProt P29275); experiment: Antagonist activity at human adenosine A2B receptor expressed in CHO cells assessed as inhibition of NECA-induced increase in cAMP accumulation preincubated for 10 mins followed by NECA addition by GloSensor cAMP assay; assay type: functional, cell-based
T4 sequence (P29275 whole entry): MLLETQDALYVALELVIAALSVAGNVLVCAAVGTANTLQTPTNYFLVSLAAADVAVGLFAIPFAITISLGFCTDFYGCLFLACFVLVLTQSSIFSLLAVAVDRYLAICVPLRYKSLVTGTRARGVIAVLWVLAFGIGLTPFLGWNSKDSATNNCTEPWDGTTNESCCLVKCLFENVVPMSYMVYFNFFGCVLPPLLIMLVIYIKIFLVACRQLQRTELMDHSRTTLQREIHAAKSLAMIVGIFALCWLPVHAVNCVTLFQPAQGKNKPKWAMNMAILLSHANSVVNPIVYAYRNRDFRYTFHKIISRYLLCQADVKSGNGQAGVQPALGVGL

[4] = target: Adenosine receptors; A1 & A3 (Homo sapiens) (UniProt P30542+P0DMS8); experiment: Selectivity ratio of Ki for displacement of [3H]CCPA from human adenosine A1 receptor expressed in CHO cells to Ki for displacement of [3H]HEMADO from human adenosine A3 receptor expressed in CHO cells; assay type: cell-based
Homo sapiens [5] = species on record: Homo sapiens; experiment: Selectivity ratio of Ki for [3H]NECA from human adenosine A2A receptor expressed in CHO cells to Ki for displacement of [3H]HEMADO from human adenosine A3 receptor expressed in CHO cells; assay type: cell-based
Adenosine receptor A2a [6] = target: T2, Adenosine receptor A2a; experiment: Antagonist activity at human adenosine A2A receptor expressed in CHO cells assessed as inhibition of NECA-induced increase in cAMP accumulation preincubated for 10 mins followed by NECA addition by GloSensor cAMP assay; assay type: functional, cell-based

T2 sequence (P29274 whole entry): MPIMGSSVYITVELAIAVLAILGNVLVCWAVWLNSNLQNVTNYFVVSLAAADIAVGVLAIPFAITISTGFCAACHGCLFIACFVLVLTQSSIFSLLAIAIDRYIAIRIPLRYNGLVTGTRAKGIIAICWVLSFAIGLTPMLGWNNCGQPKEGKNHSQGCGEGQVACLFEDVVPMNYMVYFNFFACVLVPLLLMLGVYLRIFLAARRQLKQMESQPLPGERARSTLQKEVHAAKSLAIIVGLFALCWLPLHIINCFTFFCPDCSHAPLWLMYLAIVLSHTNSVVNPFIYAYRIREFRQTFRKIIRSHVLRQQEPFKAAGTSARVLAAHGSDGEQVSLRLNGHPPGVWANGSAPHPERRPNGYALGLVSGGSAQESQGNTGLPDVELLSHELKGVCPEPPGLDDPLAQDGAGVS

Row | SMILES | Ki (Adenosine receptor A1) | Ki (Adenosine receptor A2a [1]) | Ki (Adenosine receptor A3) | Ratio Ki (Homo sapiens [2]) | Ratio Ki (Homo sapiens [3]) | IC50 (Adenosine receptor A2b) | Ratio Ki [4] | Ratio Ki (Homo sapiens [5]) | IC50 (Adenosine receptor A2a [6])
1 | COc1ccc(-c2nc(N)c3nc(-c4ccco4)sc3n2)cc1 | 47.7 nM | 11.2 nM | 4.66 nM | 4.2 | 0.4 | > 30000 nM |  |  | 
2 | COc1cccc(-c2nc(N)c3nc(-c4ccco4)sc3n2)c1 | 62.3 nM | 1.9 nM | 4.9 nM | 32.8 | 2.6 | > 30000 nM |  |  | 
3 | Cc1nc(NC(=O)c2ccccc2)c2nc(-c3ccccc3)sc2n1 | 935 nM | 1950 nM | 691 nM |  |  | > 30000 nM | 1.3 | 2.8 | 
4 | Nc1nc(-c2cccc(O)c2)nc2sc(-c3ccco3)nc12 | 51 nM | 1.64 nM | 15.7 nM | 31.1 | 9.6 | > 30000 nM |  |  | 764 nM
5 | Nc1nc(-c2ccco2)nc2sc(-c3ccccc3)nc12 | 67 nM | 1.7 nM | 2.8 nM | 39.4 | 1.6 | > 30000 nM |  |  | 163 nM
6 | COc1ccc(-c2nc(N)c3nc(-c4ccccc4)sc3n2)cc1 | 225 nM | 115 nM | 46.7 nM | 1.9 | 0.4 | > 30000 nM |  |  | 
7 | COc1cccc(-c2nc(N)c3nc(-c4ccccc4)sc3n2)c1 | 176 nM | 110 nM | 35.6 nM | 1.6 | 0.3 | > 30000 nM |  |  | 
8 | O=C(Nc1nc(-c2ccccc2)nc2sc(-c3ccccc3)nc12)c1ccccc1 | 1470 nM | 104 nM | 1200 nM |  |  | > 30000 nM | 1.2 | 0.08 | 
9 | N#Cc1cccc(-c2nc(N)c3nc(-c4ccccc4)sc3n2)c1 | 594 nM | 33.6 nM | 247 nM | 17.7 | 7.3 | > 30000 nM |  |  | 
10 | Nc1nc(-c2cccc(CO)c2)nc2sc(-c3ccco3)nc12 | 28 nM | 2.1 nM | 0.9 nM | 13 | 0.4 | > 30000 nM |  |  | 
11 | Nc1nc(-c2ccc(CO)cc2)nc2sc(-c3ccccc3)nc12 | 82 nM | 82 nM | 8.2 nM | 1 | 0.1 | > 30000 nM |  |  | 
12 | N#Cc1cccc(-c2nc(N)c3nc(-c4ccco4)sc3n2)c1 | 103 nM | 7.7 nM | 61.5 nM | 13.3 | 8 | > 30000 nM |  |  | 
13 | Cc1ccc(-c2nc(N)c3nc(-c4ccco4)sc3n2)o1 | 45.9 nM | 2.36 nM | 13.8 nM | 19.4 | 5.8 | > 30000 nM |  |  | 
14 | O=C(Nc1nc(-c2ccccc2)nc2sc(-c3ccco3)nc12)c1ccccc1 | > 30000 nM | 1140 nM | 32 nM |  |  | > 30000 nM | > 900 | 35.7 | 
15 | Nc1nc(-c2ccccc2)nc2sc(-c3ccco3)nc12 | 33 nM | 3 nM | 15 nM | 11 | 5 | > 30000 nM | 2.2 | 0.2 | 
16 | O=C(Nc1nc(-c2ccccc2)nc2sc(-c3ccccc3)nc12)c1ccco1 | 2280 nM | 3980 nM | 48 nM |  |  | > 30000 nM | 47.4 | 83 | 
17 | O=C(Nc1nc(-c2ccccc2)nc2sc(-c3ccco3)nc12)c1ccco1 | 265 nM | 428 nM | 4 nM |  |  | > 30000 nM | 66.2 | 107 | 
18 | COc1ccc(C(=O)Nc2nc(C)nc3sc(-c4ccccc4)nc23)cc1 | 1460 nM | > 30000 nM | 91 nM |  |  | > 30000 nM | 16 | > 300 | 
19 | Nc1nc(-c2ccco2)nc2sc(-c3ccco3)nc12 | 69 nM | 3.4 nM | 99 nM | 20.3 | 29.1 | > 30000 nM |  |  | 301 nM
20 | Cc1nc(NC(=O)c2ccc(Cl)cc2)c2nc(-c3ccccc3)sc2n1 | > 30000 nM | > 30000 nM | > 30000 nM |  |  | > 30000 nM |  |  | 
21 | Nc1nc(-c2ccc(CO)cc2)nc2sc(-c3ccco3)nc12 | 77.7 nM | 7.7 nM | 3.58 nM | 10.1 | 0.5 | > 30000 nM |  |  | 
22 | Cc1ccc(-c2nc(N)c3nc(-c4ccccc4)sc3n2)o1 | 28.9 nM | 22.4 nM | 24.9 nM | 1.3 | 1.1 | > 30000 nM |  |  | 
23 | Nc1nc(-c2cccc(CO)c2)nc2sc(-c3ccccc3)nc12 | 32 nM | 53 nM | 3.7 nM | 0.6 | 0.07 | > 30000 nM |  |  | 
24 | Nc1nc(-c2cccc(O)c2)nc2sc(-c3ccccc3)nc12 | 58.5 nM | 5 nM | 190 nM | 11.7 | 38 | > 30000 nM |  |  | 627 nM
25 | Nc1nc(-c2ccccc2)nc2sc(-c3ccccc3)nc12 | 148 nM | 19 nM | 84 nM | 7.8 | 4.4 | > 30000 nM | 1.76 | 0.22 | 
26 | Cc1nc(N)c2nc(-c3ccccc3)sc2n1 | 34 nM | 248 nM | 2660 nM | 0.14 | 10.7 | > 30000 nM | 0.01 | 0.09 | 

— ChEMBL document CHEMBL4330140, “Novel human adenosine receptor antagonists based on the 7-amino-thiazolo[5,4-d]pyrimidine scaffold. Structural investigations at the 2-, 5- and 7-positions to enhance affinity and tune selectivity” (Bioorg Med Chem Lett, 2019)
